Measurements reported in US20180306819A1, “ANTI-PLATELET RESPONSE AND REACTIVITY TEST USING SYNTHETIC COLLAGEN” (JNC CORPORATION, priority 2012, published 2018).

Test system: normal human platelet rich plasma
Experiment: Agonist-induced platelet aggregation in platelet rich plasma, PAP 8E aggregometer
Assay type: cell-based
Conditions: non-aspirinized plasma; for effect on ADP-induced aggregation: ADP 10 μM; for effect on Bio/Data collagen-induced aggregation: Bio/Data collagen 190 μg/mL; for effect on Chrono Log collagen-induced aggregation: Chrono Log collagen 10 μg/mL; for effect on arachidonic acid-induced aggregation: arachidonic acid 500 μg/mL; for effect on aggregation induced by lower concentrations of synthetic collagen: synthetic collagen 32 ng/mL and lower (32, 16, 8 ng/mL); for effect on aggregation induced by 64 ng/mL synthetic collagen: synthetic collagen 64 ng/mL
Description: ADP was obtained from Bio/Data Corporation, Horsham, Pa. Each vial was reconstituted with 1 mL of deionized water to make a 100 μM working solution. The final concentration of ADP in the aggregation cuvette was 10 μM.
Arachidonic acid was obtained from Bio/Data Corporation, Horsham, Pa. Each vial was reconstituted with 0.5 mL deionized water to make a 5 mg/mL working solution. The final concentration of arachidonic acid in the aggregation cuvette was 500 μg/mL.
Collagen was obtained from Bio/Data Corporation, Horsham, Pa. Each vial was reconstituted with 0.5 mL deionized water to make a 1.9 mg/mL working solution. The final concentration of Bio/Data collagen in the aggregation cuvette was 190 μg/mL.
Collagen was obtained from Chrono Log Corporation, Havertown, Pa. as a 1 mg/mL solution. A working solution of 100 μg/mL was made by dilution with physiologic saline. The final concentration of Chrono Log collagen in the aggregation cuvette was 10 μg/mL.
Synthetic collagen was provided by JNC Corporation, Yokohama, Japan at working concentrations of 80, 160, 320 and 640 ng/mL. The final concentrations of synthetic collagen in the aggregation cuvette were 64, 32, 16 and 8 ng/mL.
Approval for the collection of whole blood from healthy human volunteers was granted from the Institutional Review Board of the Health Sciences Division of Loyola University Chicago. Whole blood was drawn using a double syringe technique from the antecubital vein and anticoagulated by the addition of 1 part 3.2% sodium citrate to (9 parts blood to 1 part citrate). Citrated blood was centrifuged at 80×g at room temperature for 15 minutes to make platelet rich plasma (PRP). Supernatant PRP was collected and kept at room temperature in capped tubes. The remaining citrated blood was recentrifuged at 1,100×g for 15 minutes to make platelet poor plasma (PPP). The platelet count of the PRP was determined using an ICHOR II Analyzer, Helena Laboratories, Beaumont, Tex. Platelet count in the PRP was adjusted to 250,000-300,000/μl by the addition of homologous PPP.
Platelet aggregation was measured using a PAP 8E platelet aggregometer (Bio/Data). Each well was blanked using PPP. 25 μl of saline or antiplatelet drug and 200 μl of PRP were added to cuvettes containing magnetic stir bars and incubated for three minutes to equilibrate the sample to 37° C. 25 μl of agonist was added to each cuvette and the aggregation profile was monitored until a plateau was achieved. Results were tabulated in terms of maximal aggregation level. Under some reaction conditions, reversible aggregation was observed. This was most commonly observed with ADP and arachidonic acid-induced aggregation in the presence of ticagrelor or cilostazol. Final aggregation levels were also tabulated.

Molecule	effect on ADP-induced aggregation	effect on Bio/Data collagen-induced aggregation	effect on Chrono Log collagen-induced aggregation	effect on arachidonic acid-induced aggregation	effect on aggregation induced by lower concentrations of synthetic collagen	effect on aggregation induced by 64 ng/mL synthetic collagen	inhibition at 25 µM (Homo sapiens, Platelet, drug at 25 μM, read-out: inhibition of ADP-induced aggregation) [%]	effect on ADP-induced aggregation (listed as Cilostazol)	arachidonic acid-induced aggregation level (drug at concentrations ≥12.5 μM, 95% in the absence of drug) [%]	inhibition of agonist-induced aggregation (all agonists) (concentration range 1.25-5 μg/mL, FIG. 11)
CCCSc1nc(N[C@@H]2C[C@H]2c2ccc(F)c(F)c2)c2nnn([C@@H]3C[C@H](OCCO)[C@@H](O)[C@H]3O)c2n1 [ticagrelor, (1S,2S,3R,5S)-3-[7-[[(1R,2S)-2-(3,4-difluorophenyl)cyclopropyl]amino]-5-propylsulfanyltriazolo[4,5-d]pyrimidin-3-yl]-5-(2-hydroxyethoxy)cyclopentane-1,2-diol]	strongly inhibited	Neither Bio/Data collagen, Chrono Log collagen nor 64 ng/mL synthetic collagen was markedly impacted	Neither Bio/Data collagen, Chrono Log collagen nor 64 ng/mL synthetic collagen was markedly impacted	inhibited to a similar extent	antiplatelet effects of Ticagrelor® could be identified	Neither Bio/Data collagen, Chrono Log collagen nor 64 ng/mL synthetic collagen was markedly impacted				
O=C1CCc2cc(OCCCCc3nnnn3C3CCCCC3)ccc2N1 [cilostazol, Cilostazol]	minimally affected	did not inhibit aggregation	did not inhibit aggregation	strongly inhibited	the anti-platelet effect of higher concentrations of cilostazol could be observed	did not inhibit aggregation	~30	weaker, concentration-dependent inhibition	~20	
abciximab: Fab Fragment Chimeric monoclonal antibody 7E3 (GP IIbIIIa receptor blocker) (antibody, chains of the INN, looked up, V domains shown, Fab) VH: EVQLQQSGTVLARPGASVKMSCEASGYTFTNYWMHWVKQRPGQGLEWIGAIYPGNSDTSYIQKFKGKAKLTAVTSTTSVYMELSSLTNEDSAVYYCTLYDGYYVFAYWGQGTLVTVSA VL: EIVLTQSPVTLSVTPGDSVSLSCRASRDISNNLHWFQQTSHESPRLLIKYASQSMSGIPSRFSGSGSGTDFTLSINSVETEDFGMYFCQQTNSWPYTFGGGTKLEIK	inhibited aggregation	only observed at the 5 μg/mL concentration	only observed at the 5 μg/mL concentration	most sensitive for detecting the presence of abciximab	most sensitive for detecting the presence of abciximab	inhibited by abciximab to a comparable degree				concentration-dependent inhibition
